Reference: paper PMC8443696, “Structural determinants and regulation of spontaneous activity in GABAA receptors” (Nature Communications, 2021)
Values joined by “and” are separate entries in the source; they are usually repeats but may differ in a detail not shown here. Equal entries are not always repeated.

Key:
Type in all cases: cell-based, mouse
α4β2δ receptor = tested on: T1, α4β2δ receptor; experiment: Quantification of spontaneous activity (Ispont) in HEK cells, whole-cell patch clamp
T1 construct: expressed in transfected cells; host or cells: HEK 293
Excerpt: (§1) All components were obtained from Life Technologies.
(§2) Currents were acquired with Clampex ver.
(§3) Cells were voltage clamped at −40 mV.
(§4) For assessment of the efficacy of allosteric modulators on spontaneous activity, compounds were briefly applied (3–5 s) to achieve steady-state currents (IMod). […] The IMod was summed with IPTX (or subtracted for inhibitory modulators) and the Ispont calculated, as described by Eq. (2):2 Ispont(%)=[(IPTX+IMod)/(IPTX+IMax)]×100……………………………………

α4β3δ GABAARs = tested on: T2, α4β3δ GABAARs; experiment: Single-channel recording of spontaneous currents, outside-out patches of HEK cells; details: 100 nM THDOC, absence of GABA, individual patches
T2 construct: expressed in transfected cells; host or cells: HEK cells (outside-out patches)
Experimental: To limit ion channel density in individual patches, HEK cells were transfected with 5 ng α4, β3, δ and eGFP cDNAs. Resulting spontaneous single-channel currents were digitised at a sampling rate of 20 kHz and filtered at 5 kHz with a 4-pole Bessel filter (24 dB per octave). A fixed time resolution of 80 μs was used as a preset. Recordings were undertaken using thick-walled borosilicate patch pipettes (6–10 MΩ) filled with a solution containing (mM): 145 CsCl, 2.5 NaCl, 10 HEPES, 1 EGTA, 4 MgATP, pH 7.3. Osmolarity was 300 ± 20 mOsm/L. Cells were perfused with an external solution consisting of (mM): 145 NaCl, 2.5 KCl, 1 CaCl2, 1 MgCl2, 10 HEPES, 10 glucose, pH 7.3. Prior control recordings were obtained using untransfected HEK cells to identify endogenous channel currents.
Channel currents were digitally low pass filtered at 1–2 kHz prior to analysis. […] Channel dwell states were identified using a threshold cursor method. This state transition detection method for open and shut events was used to assemble an idealised record of the digitised data. Open times affected by channel stacking were not included in the analyses and sub-conductance states were also rare and excluded from the analysis.
The analysis of the dwell times for single-channel currents was performed by fitting a mixture of exponential components to the open time distributions. These defined the mean open times and their relative proportions (area of the components) based on using a Levenberg-Marquardt non-linear least-squares routine (WinEDR ver 3.8.7, courtesy of J Dempster, University of Strathclyde).

α1β3γ2L receptors = tested on: T3, α1β3γ2L receptors; experiment: Quantification of spontaneous activity (Ispont) in HEK cells, whole-cell patch clamp; details: α1β3γ2L THIP (Fig. 1d); THIP 3 mM, PTX 100 µM; individual cells
T3 construct: expressed in transfected cells; host or cells: HEK 293
Excerpt: as §1, §2, §3, §4

α4β3δ receptors = target: T4, α4β3δ receptors (UniProt P18506+P63080+Q9D6F4); details: THIP 3 mM
T4 construct: expressed in transfected cells; host or cells: HEK 293
T4 sequence (Q9D6F4 36-552): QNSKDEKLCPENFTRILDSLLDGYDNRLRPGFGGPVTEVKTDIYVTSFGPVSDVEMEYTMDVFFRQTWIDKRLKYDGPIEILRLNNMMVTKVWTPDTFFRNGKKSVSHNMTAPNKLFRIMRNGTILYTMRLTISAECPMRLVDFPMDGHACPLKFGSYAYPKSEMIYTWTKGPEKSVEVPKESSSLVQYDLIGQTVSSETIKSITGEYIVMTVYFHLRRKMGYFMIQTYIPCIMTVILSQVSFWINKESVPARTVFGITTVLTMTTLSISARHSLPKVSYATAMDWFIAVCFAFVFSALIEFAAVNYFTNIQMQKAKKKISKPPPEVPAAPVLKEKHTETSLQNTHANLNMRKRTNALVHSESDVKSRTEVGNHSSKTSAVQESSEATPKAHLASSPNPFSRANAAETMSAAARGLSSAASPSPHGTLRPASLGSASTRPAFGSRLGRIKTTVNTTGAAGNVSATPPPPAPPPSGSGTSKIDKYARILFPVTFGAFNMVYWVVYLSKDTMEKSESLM
T4 sequence (P63080 26-473): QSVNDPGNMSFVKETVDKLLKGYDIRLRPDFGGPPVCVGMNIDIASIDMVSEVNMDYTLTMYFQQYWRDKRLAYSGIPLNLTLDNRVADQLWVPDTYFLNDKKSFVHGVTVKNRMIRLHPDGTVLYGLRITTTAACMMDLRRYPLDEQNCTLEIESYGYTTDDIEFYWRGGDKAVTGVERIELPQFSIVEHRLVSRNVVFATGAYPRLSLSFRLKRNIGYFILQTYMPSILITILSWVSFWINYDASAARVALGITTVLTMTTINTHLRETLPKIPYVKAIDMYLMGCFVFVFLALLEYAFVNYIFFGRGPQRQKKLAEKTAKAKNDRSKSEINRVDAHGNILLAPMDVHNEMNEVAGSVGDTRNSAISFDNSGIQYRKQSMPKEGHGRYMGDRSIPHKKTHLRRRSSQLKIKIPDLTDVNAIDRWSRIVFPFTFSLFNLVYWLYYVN
T4 sequence (P18506 25-449): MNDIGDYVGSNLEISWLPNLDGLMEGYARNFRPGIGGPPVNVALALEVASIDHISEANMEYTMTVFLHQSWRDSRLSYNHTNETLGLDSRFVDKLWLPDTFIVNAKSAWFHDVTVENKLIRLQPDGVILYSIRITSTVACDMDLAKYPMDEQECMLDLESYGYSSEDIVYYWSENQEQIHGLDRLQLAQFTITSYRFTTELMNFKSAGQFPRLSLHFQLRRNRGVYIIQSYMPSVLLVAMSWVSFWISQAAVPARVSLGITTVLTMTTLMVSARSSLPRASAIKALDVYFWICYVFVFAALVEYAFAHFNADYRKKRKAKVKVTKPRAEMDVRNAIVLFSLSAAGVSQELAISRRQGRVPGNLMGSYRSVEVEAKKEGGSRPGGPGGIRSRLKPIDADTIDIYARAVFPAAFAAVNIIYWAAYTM
Excerpt: as §1, §2, §3, §4

C[C@]12CC[C@@H](O)C[C@H]1CC[C@@H]1[C@@H]2CC[C@]2(C)[C@@H](C(=O)CO)CC[C@@H]12 [THDOC, tetrahydro-deoxycorticosterone]
Ispont in the presence of modulator (α4β2δ receptor; THDOC 100 nM (Fig. 6b)): 0% and 0.09895% and 0.3365%
Area A1 of open time distribution (row head printed 'thdoc t2', r12) (α4β3δ GABAARs): did not significantly affect
Area A2 of open time distribution (thdoc t2, r14) (α4β3δ GABAARs): did not significantly affect
Area A1 of open time distribution (row head printed 'thdoc t2', r12) (α4β3δ GABAARs; listed as thdoc): 7.49E+01 and 60.19 and 6.51E+01 and 8.65E+01 and 4.84E+01 and 64.73 and 86.6 and 77.97 and 79.7 and 73.6
Area A2 of open time distribution (thdoc t2, r14) (α4β3δ GABAARs; listed as thdoc): 25.1 and 39.81 and 34.92 and 13.51 and 51.6 and 35.27 and 13.4 and 22.03 and 20.3 and 26.4

Oc1noc2c1CCNC2 [THIP, 4,5,6,7-tetrahydroisoxazolo[5,4-c]pyridin-3-ol]
Ispont, IMax from THIP (α1β3γ2L receptors): 1.055% and 0.4509% and 8.753% and 3.449% and 0.8828% and 1.773%
Ispont, IMax from THIP (α4β3δ receptors; α4β3δ THIP (Fig. 1d), PTX 100 µM, individual cells): 3.988% and 7.572% and 10.0793% and 6.822% and 17.8571% and 28.6432% and 15.8524%
IMax compared to GABA (α4β3δ receptors; α4β3δ): larger

CC(=O)[C@H]1CC[C@H]2[C@@H]3CC[C@H]4C[C@H](O)CC[C@]4(C)[C@H]3CC[C@]12C [allopregnanolone]
Ispont in the presence of modulator (α4β2δ receptor; AP 100 nM (Fig. 6b), listed as AP): 0% and 0.09895% and 0.3946%
